Experimental data published in patent publication US5320955A, “10'desmethoxystreptonigrin production by Streptomyces albus” (priority 1992, dated 1994).
Converted amounts (≈) assume the structure as drawn. “And” between values parts separate entries of the source, which are not always exact repeats. Identical values can stand only once. Like-named read-outs stand apart in the source and are kept apart here.

Columns and labels:
[1] = tested on: HCT-116 human colon cells; experiment: In vitro cytotoxicity vs. human tumor cell lines; type: cell-based; details: in triplicate, each printed
Protocol: (§1) 10'-Desmethoxystreptonigrin was also tested for cytotoxicity in vitro against human tumor cell lines according to the method of Catino et al., "A microtitre cytotoxicity assay useful for the discovery of fermentation derived antitumor agents", Cancer Chemother., Pharmacol. 15: 240-243 (1985). Modification of the dye employed therein was made according to Scudiero et al., "Evaluation of a soluble tetrazolium/formazan assay for cell growth and drug sensitivity in culture using human and other tumor cell lines," Cancer Research 48:4827-4833,1 (1988). The assays were performed in triplicate against human ovarian (A2780DDP and A2780S) and colon (HCT-116, HCT/VM46 and HCT/VP35) tumor cell lines. Such cell lines are, for example, described by Long et al., "The effects of mitomycin on human colon carcinoma cells," J. Nat. Cancer Inst. 73: 787-792 (1984) (HCT-116) and Masuda et al., "Increased DNA repair as a mechanism of acquired resistance to cis-diamminedichloroplatinum (II) in human ovarian cancer cell lines," Cancer Research 48: 5713-5716 (1988) (A2780 ).

[2] = tested on: HCT/VM46 human colon cells; experiment: In vitro cytotoxicity vs. human tumor cell lines; type: cell-based; details: HCT/VM46, resistant to teniposide, in triplicate, each printed
Protocol: as §1

[3] = tested on: HCT/VP35 human colon cells; experiment: In vitro cytotoxicity vs. human tumor cell lines; type: cell-based; details: in triplicate, each printed
Protocol: as §1

P388 murine leukemia = experiment: In vivo tests in mice, intraperitoneally implanted P388 murine leukemia model; details: intraperitoneally implanted P388, nontoxic levels
Source text: ^+ In vivo tests in mice using the intraperitoneally implanted P388
lifespan compared to control groups at nontoxic levels of
10desmethoxystreptonigrin.

[4] = tested on: A2780S human ovarian cells; experiment: cells; type: cell-based
Protocol: as §1

[5] = molecular target: protein-cysteine farnesyltransferase; experiment: Inhibition of farnesylation of p21 ras protein; type: biochemical; details: assay of Manne et al.; read-out: IC50 in inhibiting the farnesylation of p21 ras protein
Micrococcus luteus = experiment: Antibacterial activity in vitro, agar dilution MIC; type: cell-based; details: SC2495, strain SC# 2495, 37° C., 18 hours, read-out: Minimum Inhibitory Concentration (MIC)
Protocol: (§2) The following methodology was used to determine the minimum inhibitory concentration (hereinafter referred to as MIC) of 10'-desmethoxystreptonigrin against bacteria. The test organisms were grown in 20 ml of Antiobiotic Assay Broth (Difco) by inoculating the broth (in tubes) with a loopful of the organism from a BHI (Difco) agar slant. The inoculated tubes were incubated at 37° C. for 18 to 24 hours. These cultures were assumed to contain 10^9 colony forming units (CFU) per ml. The cultures were diluted 1:100 to give a final inoculum level of 10^7 CFU; dilutions were made with Yeast-Beef Broth (Difco). The test compound was dissolved in an appropriate diluent at a concentration of 1,000 μg/ml. Two-fold dilutions were made in Yeast-Beef Broth (Difco), resulting in a range from 1000 μg/ml to 0.5 μg/ml. A 1.5 ml portion of each dilution was placed into individual petri dishes to which 13.5 ml of K-10 agar was added. The composition of K-10 agar is:
(§3) The medium was sterilized at 121° C. for 15 minutes at 15 lbs. psi.
(§4) The final drug concentration in the agar ranged from 100 μg/mL to 0.05 μg/mL. Organism growth control plates containing agar only were prepared and inoculated before and after the test plates. The organisms were applied to the agar surface of each plate with a Denly Multipoint Inoculator (which delivers approximately 0.001 mL of each inoculum) resulting in a final inoculum of 10^4 CFU on the agar plate.
(§5) The plates were incubated at 37° C. for 18 hours and the MICs determined. The MIC is the lowest concentration of compound inhibiting growth of the organism.

Pseudomonas aeruginosa = experiment: Antibacterial activity in vitro, agar dilution MIC; type: cell-based; details: read-out: Minimum Inhibitory Concentration (MIC)
Protocol: as §2, §3, §4, §5

Streptococcus agalactiae = experiment: Antibacterial activity in vitro, agar dilution MIC; type: cell-based; details: 18 hours, read-out: Minimum Inhibitory Concentration (MIC)
Protocol: as §2, §3, §4, §5

Enterobacter aerogenes = experiment: Antibacterial activity in vitro, agar dilution MIC; type: cell-based; details: Klebsiella aerogenes, SC10078; strain SC# 10078; 37° C., 18 hours; read-out: Minimum Inhibitory Concentration (MIC)
Protocol: as §2, §3, §4, §5

Proteus mirabilis = experiment: Antibacterial activity in vitro, agar dilution MIC; type: cell-based; details: SC3855, strain SC# 3855, 37° C., 18 hours, read-out: Minimum Inhibitory Concentration (MIC)
Protocol: as §2, §3, §4, §5

Pseudomonas cepacia = experiment: Antibacterial activity in vitro, agar dilution MIC; type: cell-based; details: Burkholderia cepacia, SC14164; strain SC# 14164; 37° C., 18 hours; read-out: Minimum Inhibitory Concentration (MIC)
Protocol: as §2, §3, §4, §5

Salmonella typhosa = experiment: Antibacterial activity in vitro, agar dilution MIC; type: cell-based; details: Salmonella enterica, SC1195 / TYPHOSA; strain SC# 1195; 37° C., 18 hours; read-out: Minimum Inhibitory Concentration (MIC)
Protocol: as §2, §3, §4, §5

Staphylococcus aureus = experiment: Antibacterial activity in vitro, agar dilution MIC; type: cell-based; details: 18 hours, read-out: Minimum Inhibitory Concentration (MIC)
Protocol: as §2, §3, §4, §5

Klebsiella pneumoniae = experiment: Antibacterial activity in vitro, agar dilution MIC; type: cell-based; details: 18 hours, read-out: Minimum Inhibitory Concentration (MIC)
Protocol: as §2, §3, §4, §5

Enterobacter cloacae = experiment: Antibacterial activity in vitro, agar dilution MIC; type: cell-based; details: SC8236, strain SC# 8236, 37° C., 18 hours, read-out: Minimum Inhibitory Concentration (MIC)
Protocol: as §2, §3, §4, §5

Streptococcus faecalis = experiment: Antibacterial activity in vitro, agar dilution MIC; type: cell-based; details: Enterococcus faecalis, 37° C., 18 hours, read-out: Minimum Inhibitory Concentration (MIC)
Protocol: as §2, §3, §4, §5

Proteus vulgaris = experiment: Antibacterial activity in vitro, agar dilution MIC; type: cell-based; details: SC9416, strain SC# 9416, 37° C., 18 hours, read-out: Minimum Inhibitory Concentration (MIC)
Protocol: as §2, §3, §4, §5

Listerella monocytogenes = experiment: Antibacterial activity in vitro, agar dilution MIC; type: cell-based; details: strain SC# 8523; 37° C., 18 hours; read-out: Minimum Inhibitory Concentration (MIC)
Protocol: as §2, §3, §4, §5

[6] = tested on: Acinetobacter calcoaceticus; experiment: Antibacterial activity in vitro, agar dilution MIC; type: cell-based; details: SC8333, strain SC# 8333, 37° C., 18 hours, read-out: Minimum Inhibitory Concentration (MIC)
Protocol: as §2, §3, §4, §5

Shigella sonnei = experiment: Antibacterial activity in vitro, agar dilution MIC; type: cell-based; details: SC8449, strain SC# 8449, 37° C., 18 hours, read-out: Minimum Inhibitory Concentration (MIC)
Protocol: as §2, §3, §4, §5

Acinetobacter anitratus = experiment: Antibacterial activity in vitro, agar dilution MIC; type: cell-based; details: Acinetobacter calcoaceticus, SC14207; strain SC# 14207; 37° C., 18 hours; read-out: Minimum Inhibitory Concentration (MIC)
Protocol: as §2, §3, §4, §5

Nocardia autotrophica = experiment: Antibacterial activity in vitro, agar dilution MIC; type: cell-based; details: Pseudonocardia autotrophica, SC8994; strain SC# 8994; 37° C., 18 hours; read-out: Minimum Inhibitory Concentration (MIC)
Protocol: as §2, §3, §4, §5

Serratia marcescens = experiment: Antibacterial activity in vitro, agar dilution MIC; type: cell-based; details: SC9783, strain SC# 9783, 37° C., 18 hours, read-out: Minimum Inhibitory Concentration (MIC)
Protocol: as §2, §3, §4, §5

Escherichia coli = experiment: Antibacterial activity in vitro, agar dilution MIC; type: cell-based; details: 18 hours, read-out: Minimum Inhibitory Concentration (MIC)
Protocol: as §2, §3, §4, §5

Bacillus subtilis = experiment: Antibacterial activity in vitro, agar dilution MIC; type: cell-based; details: SC3777, strain SC# 3777, 37° C., 18 hours, read-out: Minimum Inhibitory Concentration (MIC)
Protocol: as §2, §3, §4, §5

Mycobacterium fortuitum = experiment: Antibacterial activity in vitro, agar dilution MIC; type: cell-based; details: Mycolicibacterium fortuitum, SC8571; strain SC# 8571; 37° C., 18 hours; read-out: Minimum Inhibitory Concentration (MIC)
Protocol: as §2, §3, §4, §5

tumor = details: background statement; cited from earlier work
[7] = background statement; cited from earlier work

## COC1=C(N)C(=O)c2nc(-c3nc(C(=O)O)c(C)c(-c4cccc(OC)c4O)c3N)ccc2C1=O [10'-Desmethoxystreptonigrin, 5'-amino-6'-(7-amino-5,8-dihydro-6-methoxy-5,8-dioxo-2-quinolyl)-4'-(8'-hydroxy-9'-methoxyphenyl)-3'-methyl-2'-pyridinecarboxylic acid]
[1]; HCT-116
  IC50 cytotoxicity: 0.003 µg/mL (≈ 0.0063 µM)
[1]; Homo sapiens, HCT-116, HCT-116
  IC50: 0.006 µg/mL (≈ 0.0126 µM)
[2]
  IC50 cytotoxicity: 0.002 µg/mL and < 0.001 µg/mL
[2]; Homo sapiens
  IC50: 0.001 µg/mL (≈ 0.0021 µM)
[3]; HCT/VP35, resistant to etoposide
  IC50 cytotoxicity: 0.002 µg/mL (≈ 0.0042 µM)
[3]; Homo sapiens, HCT/VP35, HCT/VP35, resistant to etoposide
  IC50: 0.003 µg/mL (≈ 0.0063 µM)
P388 murine leukemia
  increase in lifespan compared to control groups: no statistically significant increase
[4]; Homo sapiens, read-out: IC50 cytotoxicity, A2780S, in triplicate, each printed
  IC50: 0.001 µg/mL (≈ 0.0021 µM)
[4]; in triplicate, each printed
  IC50 cytotoxicity: 0.002 µg/mL and < 0.001 µg/mL
[5]
  IC50: 23.5 µM
Micrococcus luteus
  MIC: 0.4 µg/mL (≈ 0.84 µM)
Pseudomonas aeruginosa; SC8329, 18 h
  MIC: 6.3 µg/mL (≈ 13.2 µM)
Pseudomonas aeruginosa; SC9545, strain SC# 9545, 37° C., 18 hours
  MIC: 1.6 µg/mL (≈ 3.36 µM)
Streptococcus agalactiae; SC9287, strain SC# 9287, 37° C.
  MIC: 1.6 µg/mL (≈ 3.36 µM)
Streptococcus agalactiae; SC14008, strain SC# 14008, 37° C.
  MIC: 1.6 µg/mL (≈ 3.36 µM)
Enterobacter aerogenes
  MIC: 25 µg/mL (≈ 52.5 µM)
Proteus mirabilis
  MIC: 3.1 µg/mL (≈ 6.51 µM)
Pseudomonas cepacia
  MIC: > 25 µg/mL
Salmonella typhosa
  MIC: 1.6 µg/mL (≈ 3.36 µM)
Staphylococcus aureus; SC1276, strain SC# 1276, 37° C.
  MIC: 0.4 µg/mL (≈ 0.84 µM)
Staphylococcus aureus; SC2399, strain SC# 2399, 37° C.
  MIC: 0.2 µg/mL (≈ 0.42 µM)
Staphylococcus aureus; SC2400, strain SC# 2400, 37° C.
  MIC: 0.2 µg/mL (≈ 0.42 µM)
Staphylococcus aureus; SC10165, strain SC# 10165, 37° C.
  MIC: 0.2 µg/mL (≈ 0.42 µM)
Klebsiella pneumoniae; SC9527, strain SC# 9527, 37° C.
  MIC: 3.1 µg/mL (≈ 6.51 µM)
Klebsiella pneumoniae; SC10440, strain SC# 10440, 37° C.
  MIC: 3.1 µg/mL (≈ 6.51 µM)
Enterobacter cloacae
  MIC: > 100 µg/mL
Streptococcus faecalis; SC9011, strain SC# 9011
  MIC: 1.6 µg/mL (≈ 3.36 µM)
Streptococcus faecalis; SC9610, strain SC# 9610
  MIC: 1.6 µg/mL (≈ 3.36 µM)
Proteus vulgaris
  MIC: 0.4 µg/mL (≈ 0.84 µM)
Listerella monocytogenes
  MIC: 1.6 µg/mL (≈ 3.36 µM)
[6]
  MIC: > 100 µg/mL
Shigella sonnei
  MIC: 1.6 µg/mL (≈ 3.36 µM)
Acinetobacter anitratus
  MIC: 3.1 µg/mL (≈ 6.51 µM)
Nocardia autotrophica
  MIC: 3.1 µg/mL (≈ 6.51 µM)
Serratia marcescens
  MIC: 6.3 µg/mL (≈ 13.2 µM)
Escherichia coli; SC8294, strain SC# 8294, 37° C.
  MIC: 3.1 µg/mL (≈ 6.51 µM)
Escherichia coli; SC10857, strain SC# 10857, 37° C.
  MIC: 0.8 µg/mL (≈ 1.68 µM)
Escherichia coli; SC10896, strain SC# 10896, 37° C.
  MIC: 0.4 µg/mL (≈ 0.84 µM)
Escherichia coli; SC10909, strain SC# 10909, 37° C.
  MIC: < 0.05 µg/mL
Escherichia coli; SC12864, strain SC# 12864, 37° C.
  MIC: 1.6 µg/mL (≈ 3.36 µM)
Bacillus subtilis
  MIC: 0.2 µg/mL (≈ 0.42 µM)
Mycobacterium fortuitum
  MIC: 50 µg/mL (≈ 105 µM)

## COC1=C(N)C(=O)c2nc(-c3nc(C(=O)O)c(C)c(-c4ccc(OC)c(OC)c4O)c3N)ccc2C1=O [streptonigrin, 5'-amino-6'-(7-amino-5,-8-dihydro-6-methoxy-5,8-dioxo-2-quinolyl)-4'-(8'-hydroxy-9',10'-dimethoxyphenyl)-3'-methyl-2'-pyridinecarboxylic acid]
tumor
  activity as an antitumor antibiotic: has shown activity as an antitumor antibiotic
[7]
  toxic effect, for example, in bone marrow depression: significant toxic effect
